The results in this text go back to patent US20100285957A1, “THIAZOLYLOXYPHENYLAMIDINES OR THIADIAZOLYLOXYPHENYLAMIDINES AND THEIR USE AS FUNGICIDES” (Bayer CropScience AG, priority 2007, published 2010).

Read-outs that look alike come from different tables or passages of the source.

What is called logP is a log measure of how a compound divides between an organic and an aqueous phase.

Series [1] deals with Sphaerotheca fuliginea. In words: Sphaerotheca test (cucumber)/protective. The conditions noted are these: Podosphaera fuliginea, 168 h, 100 ppm active substance, protective, evaluation 7 days after inoculation, read-out: degree of effectiveness. The series is classed as in vivo. How it is done:
Sphaerotheca Test (Cucumber)/Protective [table] To prepare a suitable active substance composition, 1 part by weight of active substance is mixed with the given amounts of solvents and emulsifier and the concentrate is diluted to the desired concentration using water. For the testing of protective effectiveness, young plants are sprayed with the active substance composition in the application rate given. After the spray coating has been dried on, the plants are inoculated with an aqueous suspension of spores of Sphaerotheca fuliginea. The plants are then placed in a greenhouse at approximately 23° C. and a relative humidity of approximately 70%. Evaluation is carried out 7 days after the inoculation. In this connection, 0% means a degree of effectiveness corresponding to that of the control, while a degree of effectiveness of 100% means that no infestation is observed.

The subject of series [2] is Uromyces appendiculatus. Put plainly: Uromyces test (beans)/protective. To be noted: 240 h, 100 ppm active substance, protective, evaluation 10 days after inoculation, read-out: degree of effectiveness. The series is classed as in vivo. How it is done: Uromyces Test (Beans)/Protective [table] To prepare a suitable active substance composition, 1 part by weight of active substance is mixed with the given amounts of solvents and emulsifier and the concentrate is diluted to the desired concentration using water. For the testing of protective effectiveness, young plants are sprayed with the active substance composition in the application rate given. After the spray coating has been dried on, the plants are inoculated with an aqueous suspension of the spores of the bean rust pathogen Uromyces appendiculatus and then remain in an incubation chamber at approximately 20° C. and 100% relative humidity for 1 day. The plants are then placed in a greenhouse at approximately 21° C. and a relative humidity of approximately 90%. Evaluation is carried out 10 days after the inoculation. In this connection, 0% means a degree of effectiveness corresponding to that of the control, while a degree of effectiveness of 100% means that no infestation is observed.

Series [3] concerns Phakopsora pachyrhizi. Put plainly: Phakopsora test (soya)/protective. To be noted: 264 h, 100 ppm active substance, protective, evaluation 11 days after inoculation, read-out: degree of effectiveness. The series is classed as in vivo. Here is the method:
Phakopsora Test (Soya)/Protective
(§1) To prepare a suitable active substance composition, 1 part by weight of active substance is mixed with the given amounts of solvent and emulsifier and the concentrate is diluted to the desired concentration using water.
For the testing of protective effectiveness, young plants are sprayed with the active substance composition in the application rate given. After the spray coating has been dried on, the plants are inoculated with an aqueous suspension of the spores of Phakopsora pachyrhizi and then remain in an incubation chamber at approximately 20° C. and 80% relative humidity for 1 day.
Evaluation is carried out 11 days after the inoculation. In this connection, 0% means a degree of effectiveness corresponding to that of the control, while a degree of effectiveness of 100% means that no infestation is observed.

For series [4], the system named is Alternaria solani. Put plainly: Alternaria test (tomato)/protective. Type of series: in vivo. To be noted: 168 h, 500 ppm active substance, protective, evaluation 7 days after inoculation, read-out: degree of effectiveness. How it is done:
Alternaria Test (Tomato)/Protective [table] To prepare a suitable active substance composition, 1 part by weight of active substance is mixed with the given amounts of solvent and emulsifier and the concentrate is diluted to the desired concentration using water. For the testing of protective effectiveness, young tomato plants are sprayed with the active substance composition in the application rate given. 1 day after the treatment, the plants are inoculated with a suspension of the spores of Alternaria solani and then stand at 100% relative humidity and 20° C. for 24 h. Subsequently, the plants stand at 96% relative humidity and a temperature of 20° C. Evaluation is carried out 7 days after the inoculation. In this connection, 0% means a degree of effectiveness corresponding to that of the control, while a degree of effectiveness of 100% means that no infestation is observed.

Series [5] deals with Pyrenophora teres. In words: Pyrenophora teres test (barley)/protective. The conditions noted are these: 500 ppm active substance, protective, evaluation 7-9 days after inoculation, read-out: degree of effectiveness. Type of series: in vivo. Here is the method: Pyrenophora teres Test (Barley)/Protective
as §1
For the testing of protective effectiveness, young barley plants are sprayed with the active substance composition in the application rate given. 1 day after the treatment, the plants are inoculated with an aqueous suspension of the spores of Pyrenophora teres and then remain at 100% relative humidity and 20° C. for 48 h. Subsequently, the plants are placed in a greenhouse at 80% relative humidity and a temperature of 20° C.
Evaluation is carried out 7-9 days after the inoculation. In this connection, 0% means a degree of effectiveness corresponding to that of the control, while a degree of effectiveness of 100% means that no infestation is observed.

Series [6] deals with Blumeria graminis f.sp. hordei. In words: Blumeria graminis test (barley)/protective. Type of series: in vivo. The conditions noted are these: 168 h, 1000 ppm active substance, protective, evaluation 7 days after inoculation, read-out: degree of effectiveness. Here is the method:
Blumeria graminis Test (Barley)/Protective
as §1
For the testing of protective effectiveness, young plants are sprayed with the active substance composition in the application rate given.
After the spray coating has been dried on, the plants are dusted with spores of Blumeria graminis f.sp. hordei.
The plants are placed in a greenhouse at a temperature of approximately 20° C. and a relative humidity of approximately 80%, in order to encourage the development of mildew pustules.
Evaluation is carried out 7 days after the inoculation. In this connection, 0% means a degree of effectiveness corresponding to that of the control, while a degree of effectiveness of 100% means that no infestation is observed.

The test system of series [7] is Puccinia recondita var. tritici. In words: Puccinia test (wheat)/protective. The conditions noted are these: 240 h, 1000 ppm active substance, protective, evaluation 10 days after inoculation, read-out: degree of effectiveness. The series is classed as in vivo. How it is done: Puccinia Test (Wheat)/Protective
as §1
For the testing of protective effectiveness, young plants are sprayed with the active substance composition in the application rate given. After the spray coating has been dried on, the plants are sprayed with a suspension of the conidia of Puccinia recondita var. tritici. The plants remain in an incubation chamber at 20° C. and 100% relative humidity for 48 hours.
The plants are then placed in a greenhouse at a temperature of approximately 20° C. and a relative humidity of 80%, in order to encourage the development of rust pustules.
Evaluation is carried out 10 days after the inoculation. In this connection, 0% means a degree of effectiveness corresponding to that of the control, while a degree of effectiveness of 100% means that no infestation is observed.

A short description of series [8]: physchem.

In the case of `CCN(C)C=Nc1cc(C)c(Oc2nc(C3CC3)ns2)cc1C` [Compound 1, N′-{4-[(3-Cyclopropyl-1,2,4-thiadiazol-5-yl)oxy]-2,5-dimethylphenyl}-N-ethyl-N-methylimidoformamide], the figures for the pest or weed control at 100 ppm in series [1], in series [2] and in series [3] were at least 70%, at least 70% and at least 80%, respectively. Further, the pest or weed control at 500 ppm in series [4] and in series [5] was at least 70% throughout. Moreover, the pest or weed control at 1000 ppm in series [6] and in series [7] was at least 70% throughout. Further, the logP in series [8] (pH 2.3) came out at 1.59.

On to `Cc1cc(Oc2nc(C3CC3)ns2)c(C)cc1N=CN(C)C(C)C` [Compound 2, N′-{4-[(3-Cyclopropyl-1,2,4-thiadiazol-5-yl)oxy]-2,5-dimethylphenyl}-N-methyl-N-(1-methyl-ethyl)imidoformamide], for which the pest or weed control at 100 ppm in series [1] was at least 70%; in series [2], at least 70%; in series [3] it was at least 80%. For the same compound, the pest or weed control at 500 ppm in series [4] and in series [5] was at least 70% in each case. Besides, the pest or weed control at 1000 ppm in series [6] and in series [7] was at least 70% in each case. Also, the logP in series [8] (pH 2.3) was found to be 1.91.

Take `CCN(C)C=Nc1cc(C)c(Oc2nc(C3(Cl)CC3)cs2)cc1C` [Compound 5, N′-(4-{[4-(1-Chlorocyclopropyl)-1,3-thiazol-2-yl]oxy}-2,5-dimethylphenyl)-N-ethyl-N-methyl-imidoformamide]: the pest or weed control at 100 ppm in series [1] was at least 70%; in series [2] it was at least 70%; in series [3], at least 80%. Moreover, the pest or weed control at 500 ppm in series [4] and in series [5] was at least 70% in each case. For the same compound, the pest or weed control at 1000 ppm in series [6] and in series [7] was at least 70% in each case. The compound also gave a logP in series [8] of 4.8.

Take `Cc1cc(Oc2nc(C3(C)CC3)ns2)c(C)cc1N=CN(C)C(C)C` [Compound 10, N′-(2,5-Dimethyl-4-{[3-(1-methylcyclopropyl)-1,2,4-thiadiazol-5-yl]oxy}phenyl)-N-methyl-N-(1-methylethyl)imidoformamide]: the pest or weed control at 100 ppm is at least 70% in series [1], at least 70% in series [2] and at least 80% in series [3]. Further, the pest or weed control at 500 ppm in series [5] is at least 70%. Also, the pest or weed control at 1000 ppm in series [6] and in series [7] was at least 70% in each case. The logP in series [8] (pH 2.3) was 2.03.

With `CCN(C)C=Nc1cc(C)c(Oc2nc(C3(Cl)CC3)ns2)cc1C` [Compound 12, N′-(4-{[3-(1-Chlorocyclopropyl)-1,2,4-thiadiazol-5-yl]oxy}-2,5-dimethylphenyl)-N-ethyl-N-methylimidoformamide], the values for the pest or weed control at 100 ppm in series [1], in series [2] and in series [3] were at least 70%, at least 70% and at least 80%, respectively. In series [5], the pest or weed control at 500 ppm was at least 70%. The pest or weed control at 1000 ppm in series [6] and in series [7] was at least 70% each time. In series [8] (pH 2.3), this compound displayed a logP of 1.59.

Consider `Cc1cc(Oc2nc(C3(Cl)CC3)c(Cl)s2)c(C)cc1N=CN(C)C(C)C` [Compound 17, N′-(4-{[5-Chloro-4-(1-chlorocyclopropyl)-1,3-thiazol-2-yl]oxy}-2,5-dimethylphenyl)-N-methyl-N-(1-methylethyl)imidoformamide], for which the pest or weed control at 100 ppm was at least 70% in series [1], at least 70% in series [2] and at least 80% in series [3]. The pest or weed control at 500 ppm in series [5] is at least 70%. Moreover, the pest or weed control at 1000 ppm in series [6] and in series [7] was at least 70% throughout. In addition, the results for the logP in series [8] and in series [8] (pH 2.3) were 5.86 and 2.22, respectively.

Regarding `Cc1cc(Oc2nc(C3(C)CC3)c(Cl)s2)c(C)cc1/N=C/N1CCCCC1` [Compound 24, 4-{[5-Chloro-4-(1-methylcyclopropyl)-1,3-thiazol-2-yl]oxy}-2,5-dimethyl-N-[(1E)-piperidin-1-ylmethylidene]aniline], the pest or weed control at 100 ppm in series [1] and in series [2] was at least 70% in each case. Also, the pest or weed control at 500 ppm in series [4] and in series [5] was at least 70% throughout. Moreover, the pest or weed control at 1000 ppm in series [6] and in series [7] was at least 70% in each case. This compound showed a logP in series [8] (pH 2.3) of 2.34.

Turning to `CCN(C)C=Nc1cc(C)c(Oc2nc(C3(CC)C(C)C3(Cl)Cl)ns2)cc1C` (centres unmarked) [Compound 27, N′-(4-{[3-(2,2-Dichloro-1-ethyl-3-methylcyclopropyl)-1,2,4-thiadiazol-5-yl]oxy}-2,5-dimethylphenyl)-N-ethyl-N-methylimidoformamide], the pest or weed control at 100 ppm was at least 70% in series [1], at least 70% in series [2] and at least 80% in series [3]. Also, in series [5], the pest or weed control at 500 ppm was at least 70%. In addition, the logP in series [8] (pH 2.3) turned out to be 2.21.

Turning to `CCN(C)C=Nc1cc(C)c(Oc2nc(C3(F)CC3)cs2)cc1C` [Compound 29, N-Ethyl-N′-(4-{[4-(1-fluorocyclopropyl)-1,3-thiazol-2-yl]oxy}-2,5-dimethylphenyl)-N-methylimidoformamide], the pest or weed control at 100 ppm in series [1] is at least 70%; in series [2], at least 70%; in series [3], at least 80%. Besides, the pest or weed control at 500 ppm in series [4] and in series [5] was at least 70% throughout. In addition, the logP in series [8] came to 4.38; in series [8] (pH 2.3), 1.58.

As for `CCN(C)C=Nc1cc(C)c(Oc2nc(C3(F)CC3)c(Cl)s2)cc1C` [Compound 30, N′-(4-{[5-Chloro-4-(1-fluorocyclopropyl)-1,3-thiazol-2-yl]oxy}-2,5-dimethylphenyl)-N-ethyl-N-methylimidoformamide], the pest or weed control at 100 ppm in series [1] is at least 70%; in series [2] it was at least 70%; in series [3], at least 80%. Also, the pest or weed control at 500 ppm in series [5] is at least 70%. The figures for the logP in series [8] and in series [8] (pH 2.3) were 5.08 and 1.92, respectively.
